Several values for one entry are separate records, joined by “and”; a condition that tells them apart may be missing. Equal entries are not always repeated.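 Assay format: 96-well plates, 48-hour exposure. The concentration for 50% growth inhibition is given as GI50. The concentration for full growth arrest is given as TGI.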
Key:
Assay in all cases: growth of human tumour cells (NCI), 48 h
CCRF-CEM leukemia = test system: CCRF-CEM leukemia
HCC-2998 colon = test system: HCC-2998 colon
IGROV1 ovarian = test system: IGROV1 ovarian
MDA-MB-231 breast = test system: MDA-MB-231 breast
MDA-MB-435 = test system: MDA-MB-435
NCI-H23 lung = test system: NCI-H23 lung
NCI-H522 lung = test system: NCI-H522 lung
SF-295 CNS = test system: SF-295 CNS
SK-OV-3 ovarian = test system: SK-OV-3 ovarian
SNB-19 CNS = test system: SNB-19 CNS

| Compound | GI50 (CCRF-CEM leukemia) | GI50 (HCC-2998 colon) | GI50 (IGROV1 ovarian) | TGI (IGROV1 ovarian) | GI50 (MDA-MB-231 breast) | TGI (MDA-MB-231 breast) | GI50 (MDA-MB-435) | TGI (MDA-MB-435) | GI50 (NCI-H23 lung) | TGI (NCI-H23 lung) | GI50 (NCI-H522 lung) | TGI (NCI-H522 lung) | GI50 (SF-295 CNS) | TGI (SF-295 CNS) | GI50 (SK-OV-3 ovarian) | TGI (SK-OV-3 ovarian) | GI50 (SNB-19 CNS) | TGI (SNB-19 CNS) | TGI (CCRF-CEM leukemia) | TGI (HCC-2998 colon) |
| --- | --- | --- | --- | --- | --- | --- | --- | --- | --- | --- | --- | --- | --- | --- | --- | --- | --- | --- | --- | --- |
| CCCCCCCCCCCC1CCCC(C)N1 (stereo not drawn) | 1.45 µM | 2.05 µM | 6.13 µM | 19.2 µM and 142 µM | 3.99 µM | 18 µM | 5.01 µM | 18.2 µM | 8.49 µM | 23.9 µM and 133 µM | 7.29 µM | 19.9 µM and 96.4 µM | 13.5 µM | 28.3 µM and 154 µM | 14.5 µM | 28.5 µM and 158 µM | 11.4 µM | 25.3 µM and 155 µM |  |  |
| N#CSCC1CC(O)(c2ccccc2)CC(c2ccc(F)cc2)O1 (stereo not drawn) | 1.72 µM | 4.02 µM | 3.19 µM | 12 µM | 1.97 µM | 4.2 µM | 1.83 µM | 4.08 µM | 2.02 µM | 5.32 µM | 1.4 µM | 3.1 µM | 1.64 µM | 3.34 µM | 4.67 µM | 15.7 µM | 4.14 µM | 13.7 µM | 6.08 µM | 17.6 µM |
| CCN(C(=O)c1cc(F)ccc1Oc1cncnc1N1CC2(CCN(CC3CCC(NS(=O)(=O)CC)CC3)CC2)C1)C(C)C (stereo not drawn) | > 100 µM | > 100 µM | > 100 µM | > 100 µM | > 100 µM | > 100 µM | > 100 µM | > 100 µM | > 100 µM | > 100 µM | > 100 µM | > 100 µM | > 100 µM | > 100 µM | > 100 µM | > 100 µM | > 100 µM | > 100 µM | > 100 µM | > 100 µM |
| C[C@@H](CO)[C@@H]1CCC=C2CC[C@]3(C)[C@H](CC[C@@H]4[C@@]5(C)CCCNC(C)(C)[C@@H]5CC[C@]43C)[C@H]21 | 3.08 µM | 1.62 µM | 1.78 µM | 3.41 µM | 1.94 µM | 4.03 µM | 1.76 µM | 3.53 µM | 3.94 µM | 14.3 µM | 1.85 µM | 3.86 µM | 1.66 µM | 3.11 µM | 12.8 µM | 30.8 µM | 2.03 µM | 4.15 µM | 13.9 µM | 3.11 µM |
| O=C(NCc1ccc(Cn2c(=O)sn(-c3ccccc3)c2=O)cc1)OCc1ccc2c(Br)cc(Br)c(O)c2n1 | 0.351 µM | 1.8 µM | 0.428 µM | 1.58 µM | 1.18 µM | 2.53 µM | 0.427 µM | 1.59 µM | 1.4 µM | 3.06 µM | 0.309 µM | 1.08 µM | 1.6 µM | 3.06 µM | 3.61 µM | 14 µM | 1.55 µM | 2.9 µM | > 100 µM | 3.41 µM |
| COc1ccc(/C=C2\CCC(CNc3ccc(OC)cc3)C2=O)cc1 (stereo not drawn) |  |  |  | 19.2 µM |  | 35.7 µM |  | 40.6 µM |  | 19 µM |  | 11.6 µM |  | > 31.6 µM |  | > 100 µM |  | > 59.2 µM | 29.9 µM | 48.1 µM |
| CC(=O)O[C@]1(C(C)=O)CC[C@H]2[C@@H]3C=C(C)C4=CC(=O)CC[C@]4(C)[C@H]3CC[C@@]21C | > 80.4 µM | > 100 µM | > 100 µM | > 100 µM | > 100 µM | > 100 µM | > 100 µM | > 100 µM | > 100 µM | > 100 µM | 53.2 µM | > 100 µM | > 83.3 µM | > 100 µM | > 91.9 µM | > 100 µM | > 82.9 µM | > 100 µM | > 100 µM | > 100 µM |
| COC(=O)C1=C(C)NC(C)=C(C(=O)OC)C1/C=C(Cl)/C=C/c1ccccc1 | 29.6 µM | 14 µM | 18.2 µM | 43.8 µM | 17.9 µM | 36.7 µM | 18.8 µM | 37.1 µM | 21.3 µM | 41.6 µM | 21.7 µM | 72 µM | 17.3 µM | 38.6 µM | 28.2 µM | > 100 µM | 37.7 µM | > 100 µM | 60 µM | 27.2 µM |
| COc1cc(Nc2ccnc(NCCCNc3ccnc4cc(Cl)ccc34)n2)cc(OC)c1 | 1.19 µM | 1.58 µM | 2.23 µM | 5.73 µM | 1.5 µM | 3.16 µM | 1.51 µM | 2.88 µM | 2.67 µM | 10.2 µM | 1.8 µM | 3.78 µM | 1.37 µM | 2.78 µM | 2.42 µM | 6.08 µM | 2.32 µM | 8 µM | 3.88 µM | 3.36 µM |
| COc1ccc(/C(C#N)=C/c2ccc(OC)c(OC)c2)cc1 |  |  |  | > 100 µM |  | > 100 µM |  | > 100 µM |  | > 100 µM |  | > 100 µM |  | > 100 µM |  | > 100 µM |  | > 100 µM | > 100 µM | > 100 µM |
